Laboratory results reported in patent publication US20030211942A1, “Aryl sulfonyl amino carbonyl triazole based selective herbicides” (priority 2000, published 2003).
Values joined by “and” are separate entries in the source; they are usually repeats but may differ in a detail not shown here. Equal entries are not always repeated.

Tests used:
Experiment in all cases: Post-emergence/greenhouse herbicidal test
Assay type in all cases: in vivo
Veronica persicaria = details: 60 g of ai/ha, post-emergence, about 3 weeks
Description: (§1) Procarbazone- and flucarbazone-sodium were used as 70 WG formulation. Fenoxaprop-P-ethyl was used in a mixture with mefenpyr-diethyl (75 g of mefenpyr-diethyl/l) as Ralon® Super 69 EW. Cinidon-ethyl and florasulam and iodosufuron in a mixture with mefenpyr-diethyl were used in the form of the finished formulations Lotus® 200 EC, Primus® 50 SC and Hussar® 5 WG (15% mefenpyr-diethyl), respectively. Amicarbazone was used as 70 WG formulation.
(§2) In pre- and post-emergence experiments, the spray liquor is usually admixed with a surfactant (Renex 36), at a concentration of 0.1%.
(§3) Test plants are grown under controlled conditions (temperature and light).
(§4) Following the spray application, the plant containers are kept in a greenhouse under constant light and temperature conditions.
(§5) After about 3 weeks, the degree of damage to the plants is rated in % damage in comparison to the development of the untreated control.
(§6) 0% =no damage (like untreated control)
(§7) 100% =total destruction/damage

Alopecurus myosuroides = details: post-emergence, about 3 weeks
Description: as §1, §2, §3, §4, §5, §6, §7

Matricaria inodora = tested on: Matricaria inodora
Description: as §1, §2, §3, §4, §5, §6, §7

Bromus secalinus = details: post-emergence, about 3 weeks
Description: as §1, §2, §3, §4, §5, §6, §7

Lolium perenne = details: post-emergence, about 3 weeks
Description: as §1, §2, §3, §4, §5, §6, §7

Polygonum convolvolus = details: post-emergence, about 3 weeks
Description: as §1, §2, §3, §4, §5, §6, §7

Echinochloa crus-galli = tested on: Echinochloa crus-galli
Description: as §1, §2, §3, §4, §5, §6, §7

Eriochloa villosa = details: 60 g of ai/ha, post-emergence, about 3 weeks
Description: as §1, §2, §3, §4, §5, §6, §7

Abutilon theophrasti = details: post-emergence, about 3 weeks
Description: as §1, §2, §3, §4, §5, §6, §7

Datura strumarium = details: post-emergence, about 3 weeks
Description: as §1, §2, §3, §4, §5, §6, §7

Chenopodium album = details: post-emergence, about 3 weeks
Description: as §1, §2, §3, §4, §5, §6, §7

Digitaria sanguinalis = details: post-emergence, about 3 weeks
Description: as §1, §2, §3, §4, §5, §6, §7

Galium aparine = details: post-emergence, about 3 weeks
Description: as §1, §2, §3, §4, §5, §6, §7

Avena fatua = tested on: Avena fatua
Description: as §1, §2, §3, §4, §5, §6, §7

Viola arvensis = details: post-emergence, about 3 weeks
Description: as §1, §2, §3, §4, §5, §6, §7

Xanthium strumarium = details: post-emergence, about 3 weeks
Description: as §1, §2, §3, §4, §5, §6, §7

Stellaria media = details: post-emergence, about 3 weeks
Description: as §1, §2, §3, §4, §5, §6, §7

Cassia tora = tested on: Cassia tora
Description: as §1, §2, §3, §4, §5, §6, §7

Amaranthus retroflexus = details: post-emergence, about 3 weeks
Description: as §1, §2, §3, §4, §5, §6, §7

[1] = 60 g of ai/ha, post-emergence, about 3 weeks
[2] = 15 g of ai/ha, post-emergence, about 3 weeks
[3] = 30 g of ai/ha, post-emergence, about 3 weeks

**Q.** How did the Veronica persicaria observed (Veronica persicaria) turn out when `COc1nn(C(=O)NS(=O)(=O)c2ccccc2OC(F)(F)F)c(=O)n1C` [Flucarbazone-sodium, 2-(2-trifluoromethoxy-phenylsulphonylaminocarbonyl)-4-methyl-5-methoxy-2,4-dihydro-3H-1,2,4-triazol-3-one] was run?
**A.** The Veronica persicaria observed was 0%.

**Q.** And the Alopecurus myosuroides observed (Alopecurus myosuroides; 15 g of ai/ha)?
**A.** The Alopecurus myosuroides observed was 70%.

**Q.** And the Alopecurus myosuroides observed (Alopecurus myosuroides; 30 g of ai/ha)?
**A.** Its Alopecurus myosuroides observed is 70%.

**Q.** What about the Alopecurus myosuroides observed (Alopecurus myosuroides; 60 g of ai/ha) of the same molecule?
**A.** The Alopecurus myosuroides observed was 70%.

**Q.** And the Matricaria inodora observed (Matricaria inodora; [1])?
**A.** The Matricaria inodora observed was 20%.

**Q.** And the Matricaria inodora observed (Matricaria inodora; application rate 15 g ai/ha)?
**A.** Its Matricaria inodora observed is 20.

**Q.** What about the Matricaria inodora observed (Matricaria inodora; application rate 30 g ai/ha) of the same molecule?
**A.** Its Matricaria inodora observed is 60.

**Q.** And the Matricaria inodora observed (Matricaria inodora; application rate 60 g ai/ha)?
**A.** The Matricaria inodora observed was 60.

**Q.** And the Bromus secalinus observed (Bromus secalinus; 15 g of ai/ha)?
**A.** Its Bromus secalinus observed is 70%.

**Q.** What about the Bromus secalinus observed (Bromus secalinus; 30 g of ai/ha) of the same molecule?
**A.** Its Bromus secalinus observed is 70% and 90%.

**Q.** And the Bromus secalinus observed (Bromus secalinus; 60 g of ai/ha)?
**A.** Its Bromus secalinus observed is 80% and 90%.

**Q.** And the Lolium perenne observed (Lolium perenne; 15 g of ai/ha)?
**A.** The Lolium perenne observed was 80%.

**Q.** And the Lolium perenne observed (Lolium perenne; 30 g of ai/ha)?
**A.** Its Lolium perenne observed is 90%.

**Q.** What about the Lolium perenne observed (Lolium perenne; 60 g of ai/ha) of the same molecule?
**A.** Its Lolium perenne observed is 90%.

**Q.** And the Polygonum convolvolus observed (Polygonum convolvolus; 15 g of ai/ha)?
**A.** The Polygonum convolvolus observed was 60%.

**Q.** And the Polygonum convolvolus observed (Polygonum convolvolus; 30 g of ai/ha)?
**A.** The Polygonum convolvolus observed was 70%.

**Q.** And the Polygonum convolvolus observed (Polygonum convolvolus; 60 g of ai/ha)?
**A.** The Polygonum convolvolus observed was 70%.

**Q.** What about the Echinochloa crus-galli observed (Echinochloa crus-galli; [2]) of the same molecule?
**A.** Its Echinochloa crus-galli observed is 50%.

**Q.** And the Echinochloa crus-galli observed (Echinochloa crus-galli; [1])?
**A.** Its Echinochloa crus-galli observed is 90%.

**Q.** What about the Echinochloa crus-galli observed (Echinochloa crus-galli; application rate 15 g ai/ha) of the same molecule?
**A.** Its Echinochloa crus-galli observed is 60.

**Q.** What about the Echinochloa crus-galli observed (Echinochloa crus-galli; application rate 30 g ai/ha) of the same molecule?
**A.** The Echinochloa crus-galli observed was 70.

**Q.** What about the Echinochloa crus-galli observed (Echinochloa crus-galli; application rate 60 g ai/ha) of the same molecule?
**A.** The Echinochloa crus-galli observed was 90.

**Q.** And the Eriochloa villosa observed (Eriochloa villosa)?
**A.** Its Eriochloa villosa observed is 70%.

**Q.** What about the Abutilon theophrasti observed (Abutilon theophrasti; 15 g of ai/ha) of the same molecule?
**A.** The Abutilon theophrasti observed was 0%.

**Q.** And the Abutilon theophrasti observed (Abutilon theophrasti; 30 g of ai/ha)?
**A.** Its Abutilon theophrasti observed is 0%.

**Q.** And the Abutilon theophrasti observed (Abutilon theophrasti; 60 g of ai/ha)?
**A.** Its Abutilon theophrasti observed is 0%.

**Q.** And the Datura strumarium observed (Datura strumarium; 15 g of ai/ha)?
**A.** Its Datura strumarium observed is 70%.

**Q.** And the Datura strumarium observed (Datura strumarium; 60 g of ai/ha)?
**A.** The Datura strumarium observed was 80%.

**Q.** What about the Chenopodium album observed (Chenopodium album; 15 g of ai/ha) of the same molecule?
**A.** The Chenopodium album observed was 50%.

**Q.** What about the Chenopodium album observed (Chenopodium album; 30 g of ai/ha) of the same molecule?
**A.** The Chenopodium album observed was 50%.

**Q.** What about the Chenopodium album observed (Chenopodium album; 60 g of ai/ha) of the same molecule?
**A.** The Chenopodium album observed was 70%.

**Q.** And the Digitaria sanguinalis observed (Digitaria sanguinalis; 30 g of ai/ha)?
**A.** The Digitaria sanguinalis observed was 20%.

**Q.** What about the Digitaria sanguinalis observed (Digitaria sanguinalis; 60 g of ai/ha) of the same molecule?
**A.** Its Digitaria sanguinalis observed is 20%.

**Q.** And the Galium aparine observed (Galium aparine; 15 g of ai/ha)?
**A.** The Galium aparine observed was 0%.

**Q.** And the Galium aparine observed (Galium aparine; 30 g of ai/ha)?
**A.** Its Galium aparine observed is 0%.

**Q.** And the Galium aparine observed (Galium aparine; 60 g of ai/ha)?
**A.** Its Galium aparine observed is 0%.

**Q.** And the Avena fatua observed (Avena fatua; [2])?
**A.** The Avena fatua observed was 80%.

**Q.** What about the Avena fatua observed (Avena fatua; [3]) of the same molecule?
**A.** The Avena fatua observed was 90%.

**Q.** And the Avena fatua observed (Avena fatua; [1])?
**A.** Its Avena fatua observed is 90%.

**Q.** And the Avena fatua observed (Avena fatua; Table B-62, application rate 15 g ai/ha)?
**A.** Its Avena fatua observed is 80.

**Q.** What about the Avena fatua observed (Avena fatua; application rate 15 g ai/ha) of the same molecule?
**A.** The Avena fatua observed was 70.

**Q.** What about the Avena fatua observed (Avena fatua; application rate 30 g ai/ha) of the same molecule?
**A.** The Avena fatua observed was 70.

**Q.** What about the Avena fatua observed (Avena fatua; application rate 60 g ai/ha) of the same molecule?
**A.** The Avena fatua observed was 70.

**Q.** And the Viola arvensis observed (Viola arvensis; 15 g of ai/ha)?
**A.** Its Viola arvensis observed is 60% and 50% and 80%.

**Q.** And the Viola arvensis observed (Viola arvensis; 30 g of ai/ha)?
**A.** Its Viola arvensis observed is 50%.

**Q.** And the Viola arvensis observed (Viola arvensis; 60 g of ai/ha)?
**A.** The Viola arvensis observed was 50%.

**Q.** And the Xanthium strumarium observed (Xanthium strumarium; 15 g of ai/ha)?
**A.** Its Xanthium strumarium observed is 20%.

**Q.** And the Xanthium strumarium observed (Xanthium strumarium; 30 g of ai/ha)?
**A.** The Xanthium strumarium observed was 40%.

**Q.** And the Xanthium strumarium observed (Xanthium strumarium; 60 g of ai/ha)?
**A.** The Xanthium strumarium observed was 60%.

**Q.** What about the Stellaria media observed (Stellaria media; 15 g of ai/ha) of the same molecule?
**A.** Its Stellaria media observed is 0%.

**Q.** And the Stellaria media observed (Stellaria media; 30 g of ai/ha)?
**A.** Its Stellaria media observed is 60%.

**Q.** And the Stellaria media observed (Stellaria media; 60 g of ai/ha)?
**A.** The Stellaria media observed was 95%.

**Q.** And the Cassia tora observed (Cassia tora; [2])?
**A.** The Cassia tora observed was 50%.

**Q.** What about the Cassia tora observed (Cassia tora; [3]) of the same molecule?
**A.** The Cassia tora observed was 50%.

**Q.** What about the Cassia tora observed (Cassia tora; [1]) of the same molecule?
**A.** Its Cassia tora observed is 50%.

**Q.** What about the Cassia tora observed (Cassia tora; application rate 15 g ai/ha) of the same molecule?
**A.** Its Cassia tora observed is 0.

**Q.** And the Amaranthus retroflexus observed (Amaranthus retroflexus; 15 g of ai/ha)?
**A.** Its Amaranthus retroflexus observed is 90%.

**Q.** And the Amaranthus retroflexus observed (Amaranthus retroflexus; 30 g of ai/ha)?
**A.** Its Amaranthus retroflexus observed is 90%.

**Q.** What about the Amaranthus retroflexus observed (Amaranthus retroflexus; 60 g of ai/ha) of the same molecule?
**A.** Its Amaranthus retroflexus observed is 90%.
